Assay results: patent publication US12643886B2 (Ontario Institute for Cancer Research (OICR), priority 2021, dated 2026)

Key:
Type in all cases: biochemical
NUAK2 (h) = biological target: T1, NUAK2 (h) (Homo sapiens, UniProt Q9H093); experiment: NUAK2 enzymatic assay (radiometric, Eurofins); conditions: full-length recombinant enzyme
T1 construct: This assay was done radiometrically using full-length, recombinant enzyme; purchased Eurofins
T1 sequence (Q9H093 1-628): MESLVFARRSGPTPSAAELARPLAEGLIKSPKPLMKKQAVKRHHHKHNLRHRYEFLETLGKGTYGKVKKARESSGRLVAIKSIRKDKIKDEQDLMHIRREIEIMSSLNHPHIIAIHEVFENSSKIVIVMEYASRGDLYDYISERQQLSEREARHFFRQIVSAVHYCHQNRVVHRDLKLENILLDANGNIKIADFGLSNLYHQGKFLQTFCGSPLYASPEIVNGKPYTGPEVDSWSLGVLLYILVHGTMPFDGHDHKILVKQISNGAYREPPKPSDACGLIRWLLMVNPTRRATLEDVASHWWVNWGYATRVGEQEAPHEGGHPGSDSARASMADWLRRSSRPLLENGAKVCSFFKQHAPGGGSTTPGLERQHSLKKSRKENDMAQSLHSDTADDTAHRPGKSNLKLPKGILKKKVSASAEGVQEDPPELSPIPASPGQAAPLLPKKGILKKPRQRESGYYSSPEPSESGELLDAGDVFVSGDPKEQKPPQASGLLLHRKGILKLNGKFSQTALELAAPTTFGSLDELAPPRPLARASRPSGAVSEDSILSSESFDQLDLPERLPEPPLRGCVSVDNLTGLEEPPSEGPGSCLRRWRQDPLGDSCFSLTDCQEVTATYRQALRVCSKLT
Outline: (§1)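 Full-length recombinant NUAK2 incubated 40 min at room temperature in 8 mM MOPS pH 7.0, 0.2 mM EDTA, 10 mM magnesium acetate, 300 μM peptide substrate and 33P-ATP. Stopped with 0.5% phosphoric acid; filter-bound label counted by scintillation. IC50 reported as ranges; NUAK1 and Aurora A served as counter-screens.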

Aurora A = biological target: T2, Aurora A (Homo sapiens, UniProt O14965); experiment: Counter-screen against Aurora A; conditions: read-out: AUR-A (IC50)
T2 sequence (O14965 1-403): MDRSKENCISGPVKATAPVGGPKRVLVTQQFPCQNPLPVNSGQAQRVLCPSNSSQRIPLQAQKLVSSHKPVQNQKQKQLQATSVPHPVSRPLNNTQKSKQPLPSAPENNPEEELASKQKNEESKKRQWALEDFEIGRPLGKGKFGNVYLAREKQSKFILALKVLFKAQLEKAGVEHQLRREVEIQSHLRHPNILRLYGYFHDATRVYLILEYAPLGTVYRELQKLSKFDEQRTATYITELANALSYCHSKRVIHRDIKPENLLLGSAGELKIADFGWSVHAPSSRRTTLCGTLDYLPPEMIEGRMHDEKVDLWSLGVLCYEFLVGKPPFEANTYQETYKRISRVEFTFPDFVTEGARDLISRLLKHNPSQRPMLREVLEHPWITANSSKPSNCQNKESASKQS
Outline: as §1

NUAK1 = biological target: T3, NUAK1 (Homo sapiens, UniProt O60285); experiment: Counter-screen against NUAK1
T3 sequence (O60285 1-661): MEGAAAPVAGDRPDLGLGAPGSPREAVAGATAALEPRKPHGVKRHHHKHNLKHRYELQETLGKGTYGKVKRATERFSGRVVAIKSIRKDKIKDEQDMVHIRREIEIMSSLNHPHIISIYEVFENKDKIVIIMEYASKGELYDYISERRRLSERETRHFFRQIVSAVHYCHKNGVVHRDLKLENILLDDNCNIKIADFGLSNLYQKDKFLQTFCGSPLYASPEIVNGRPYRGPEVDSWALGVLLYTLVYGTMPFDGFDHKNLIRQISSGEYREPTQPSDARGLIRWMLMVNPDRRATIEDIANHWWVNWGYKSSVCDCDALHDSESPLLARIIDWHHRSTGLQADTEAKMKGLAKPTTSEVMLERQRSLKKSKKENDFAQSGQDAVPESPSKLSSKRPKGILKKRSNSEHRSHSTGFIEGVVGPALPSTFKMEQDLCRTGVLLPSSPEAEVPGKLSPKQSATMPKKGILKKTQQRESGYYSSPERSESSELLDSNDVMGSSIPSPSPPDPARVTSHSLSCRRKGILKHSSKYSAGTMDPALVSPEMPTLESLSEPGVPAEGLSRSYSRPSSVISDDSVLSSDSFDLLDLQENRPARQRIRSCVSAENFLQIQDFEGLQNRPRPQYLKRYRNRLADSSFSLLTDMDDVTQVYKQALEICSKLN
Outline: as §1

IC50 (NUAK2 (h)) [µM] | IC50 (Aurora A) [µM] | IC50 (NUAK1) [µM] | SMILES
0.0001 to 0.01 | 0.101 to 1 | 0.011 to 0.1 | C[C@@H]1CN(C2CCN(c3ccc(Nc4ncc(C(F)(F)F)c(Nc5cccc6c5C(=O)NC6)n4)c(OC(F)F)c3)CC2)C[C@H](C)N1C [Compound I-48, 7-((2-((2-(difluoromethoxy)-4-(4-((3S,5R)-3,4,5-trimethylpiperazin-1-yl)piperidin-1-yl)phenyl)amino)-5-(trifluoromethyl)pyrimidin-4-yl)amino)isoindolin-1-one]
0.0001 to 0.01 | > 1 | 0.011 to 0.1 | C[C@@H]1CN(c2ccc(Nc3ncc(C(F)(F)F)c(Nc4cccc5c4C(=O)NC5)n3)c(OC(F)F)c2)C[C@H](C)N1 [Compound I-49, 7-((2-((2-(difluoromethxoy)-4-((3S,5R)-3,5-dimethylpiperazin-1-yl)phenyl)amino)-5-(trifluoromethyl)pyrimidin-4-yl)amino)isoindolin-1-one]
0.0001 to 0.01 | > 1 | 0.011 to 0.1 | C[C@H]1CN(c2ccc(Nc3ncc(C(F)(F)F)c(Nc4cccc5c4C(=O)NC5)n3)c(OC(F)F)c2)CCN1 [Compound I-50, (S)-7-((2-((2-(difluoromethoxy)-4-(3-methylpiperazin-1-yl)phenyl)amino)-5-(trifluoromethyl)pyrimidin-4-yl)amino)isoindolin-1-one]
0.0001 to 0.01 | 0.0001 to 0.01 | 0.0001 to 0.01 | CN1CCN(c2ccc(Nc3ncc(Cl)c(Nc4cccc5c4C(=O)NC5)n3)cc2)CC1 [Compound I-51, 7-((5-chloro-2-((4-(4-methylpiperazin-1-yl)phenyl)amino)pyrimidin-4-yl)amino)isoindolin-1-one]
0.011 to 0.1 | 0.011 to 0.1 | 0.011 to 0.1 | O=C1NCc2cccc(Nc3nc(Nc4cc5c(cc4Cl)CNCC5)ncc3C(F)(F)F)c21 [Compound I-52, 7-((2-((7-chloro-1,2,3,4-tetrahydroisoquinolin-6-yl)amino)-5-(trifluoromethyl)pyrimidin-4-yl)amino)isoindolin-1-one]
0.011 to 0.1 | > 1 | 0.101 to 1 | CN1CCN(c2ccc(Nc3ncc(C(F)(F)F)c(Nc4cccc5c4C(=O)NC5)n3)c(OC(F)(F)F)c2)CC1 [Compound I-53, 7-((2-((4-(4-methylpiperazin-1-yl)-2-(trifluoromethoxy)phenyl)amino)-5-(trifluoromethyl)pyrimidin-4-yl)amino)isoindolin-1-one]
0.0001 to 0.01 | > 1 | 0.011 to 0.1 | O=C1NCc2cccc(Nc3nc(Nc4ccc(N5CCCNCC5)cc4OC(F)F)ncc3C(F)(F)F)c21 [Compound I-55, 7-((2-((4-(1,4-diazepan-1-yl)-2-(difluoromethoxy)phenyl)amino)-5-(trifluoromethyl)pyrimidin-4-yl)amino)isoindolin-1-one]
0.0001 to 0.01 | > 1 | 0.011 to 0.1 | C[C@@H]1CN(c2ccc(Nc3ncc(C(F)(F)F)c(Nc4cccc5c4C(=O)NC5)n3)c(OC(F)F)c2)CCN1 [Compound I-57, (R)-7-((2-((2-(difluoromethoxy)-4-(3-methylpiperazin-1-yl)phenyl)amino)-5-(trifluoromethyl)pyrimidin-4-yl)amino)isoindolin-1-one]
0.011 to 0.1 | 0.101 to 1 | 0.011 to 0.1 | O=C1NCc2cccc(Nc3nc(Nc4ccc(N5CCC6(CCNCC6)CC5)cc4OC(F)F)ncc3C(F)(F)F)c21 [Compound I-58, 7-((2-((2-(difluoromethoxy)-4-(3,9-diazaspiro[5.5]undecan-3-yl)phenyl)amino)-5-(trifluoromethyl)pyrimidin-4-yl)amino)isoindolin-1-one]
0.011 to 0.1 | 0.101 to 1 | 0.011 to 0.1 | O=C1NCc2cccc(Nc3nc(Nc4ccc(N5CCOCC5)cc4OC(F)F)ncc3C(F)(F)F)c21 [Compound I-60, 7-((2-((2-(difluoromethoxy)-4-morpholinophenyl)amino)-5-(trifluoromethyl)pyrimidin-4-yl)amino)isoindolin-1-one]
0.011 to 0.1 | 0.101 to 1 | 0.011 to 0.1 | CCN(CC)CCOc1ccc(Nc2ncc(C(F)(F)F)c(Nc3cccc4c3C(=O)NC4)n2)cc1 [Compound I-61, 7-((2-((4-(2-(diethylamino)ethoxy)phenyl)amino)-5-(trifluoromethyl)pyrimidin-4-yl)amino)isoindolin-1-one]
0.0001 to 0.01 | 0.011 to 0.1 | 0.0001 to 0.01 | CCN(CC)CCOc1ccc(Nc2ncc(Cl)c(Nc3cccc4c3C(=O)NC4)n2)cc1 [Compound I-62, 7-((5-chloro-2-((4-(2-(diethylamino)ethoxy)phenyl)amino)pyrimidin-4-yl)amino)isoindolin-1-one]
0.0001 to 0.01 | > 1 | 0.011 to 0.1 | O=C1NCc2cccc(Nc3nc(Nc4ccc(N5C[C@H]6CC[C@@H](C5)N6)cc4OC(F)F)ncc3Cl)c21 [Compound I-64, 7-((2-((4-((1R,5S)-3,8-diazabicyclo[3.2.1]octan-3-yl)-2-(difluoromethoxy)phenyl)amino)-5-chloropyrimidin-4-yl)amino)isoindolin-1-one]
0.0001 to 0.01 | 0.101 to 1 | 0.101 to 1 | CC1(C)CN(c2ccc(Nc3ncc(C(F)(F)F)c(Nc4cccc5c4C(=O)NC5)n3)c(OC(F)F)c2)CCN1 [Compound I-65, 7-((2-((2-(difluoromethoxy)-4-(3,3-dimethylpiperazin-1-yl)phenyl)amino)-5-(trifluoromethyl)pyrimidin-4-yl)amino)isoindolin-1-one]
0.0001 to 0.01 | 0.101 to 1 | 0.011 to 0.1 | O=C1NCc2cccc(Nc3nc(Nc4ccc(N5C[C@@H]6C[C@H]5CN6)cc4OC(F)F)ncc3Cl)c21 [Compound I-66, 7-((2-((4-((1S,4S)-2,5-diazabicyclo[2.2.1]heptan-2-yl)-2-(difluoromethoxy)phenyl)amino)-5-chloropyrimidin-4-yl)amino)isoindolin-1-one]
0.0001 to 0.01 | 0.101 to 1 | 0.011 to 0.1 | O=C1NCc2cccc(Nc3nc(Nc4ccc(N5CCC(N6CCNCC6)CC5)cc4OC(F)F)ncc3Cl)c21 [Compound I-67, 7-((5-chloro-2-((2-(difluoromethoxy)-4-(4-(piperazin-1-yl)piperidin-1-yl)phenyl)amino)pyrimidin-4-yl)amino)isoindolin-1-one]
0.0001 to 0.01 | 0.101 to 1 | 0.011 to 0.1 | COc1nc(N2CCN(C)CC2)ccc1Nc1ncc(C(F)(F)F)c(Nc2cccc3c2C(=O)NC3)n1 [Compound I-68, 7-((2-((2-methoxy-6-(4-methylpiperazin-1-yl)pyridin-3-yl)amino)-5-(trifluoromethyl)pyrimidin-4-yl)amino)isoindolin-1-one]
0.0001 to 0.01 | 0.101 to 1 | 0.011 to 0.1 | CN1CCCN(C2CCN(c3ccc(Nc4ncc(C(F)(F)F)c(Nc5cccc6c5C(=O)NC6)n4)c(OC(F)F)c3)CC2)CC1 [Compound I-69, 7-((2-((2-(difluoromethoxy)-4-(4-(4-methyl-1,4-diazepan-1-yl)piperidin-1-yl)phenyl)amino)-5-(trifluoromethyl)pyrimidin-4-yl)amino)isoindolin-1-one]
